Results taken from article PMC7377239, “Cardiovascular Effects of Polychlorinated Biphenyls and Their Major Metabolites” (Environmental Health Perspectives, 2020).
Like-named read-outs stand apart in the source and are kept apart here.

System: iCell cardiomyocytes (human iPSC-derived cardiomyocytes)
Assay: Intracellular Ca2+ flux / beating parameters in iCell cardiomyocytes (FLIPR tetra), 90 min or 24 h
Type: cell-based
Details: for activity at 0.01 µM / activity at 0.1 µM / activity at 1 µM / activity at 10 µM / activity at 100 µM: Homo sapiens, Cardiomyocyte, 0.00 µM = 100.00; for activity at 0.1 µM: 0.10 µM
How it was run: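 PODs were defined as the concentration crossing one SD of the vehicle-control means (0.5% DMSO) on four-parameter logistic fits of Ca2+ trace metrics (peak height, frequency, peak-spacing CV, decay/rise ratio). Traces came from 100 s, 8 Hz FLIPR reads at 37 °C on calcium-dye-loaded iCell cardiomyocytes. Before reading, cells were treated for 90 min or 24 h from 5× chemical plates spanning 0.05–500 µM, in triplicate.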

[1] = 1.5 h, 90min, read-out: cm.amp.avg.90min
[2] = 1.5 h, 90min, read-out: cm.amp.cv.90min
[3] = 1.5 h, 90min, read-out: cm.bpm.90min
[4] = 1.5 h, 90min, read-out: cm.decay.rise.90min
[5] = 1.5 h, 90min, read-out: cm.spacing.cv.90min
[6] = 24 h, 24hrs, read-out: cm.amp.avg.24hrs
[7] = 24 h, 24hrs, read-out: cm.amp.cv.24hrs
[8] = 24 h, 24hrs, read-out: cm.bpm.24hrs
[9] = 24 h, 24hrs, read-out: cm.decay.rise.24hrs
[10] = 24 h, 24hrs, read-out: cm.spacing.cv.24hrs

Oc1cc(Cl)c(-c2cc(Cl)ccc2Cl)cc1Cl [4-OH PCB52]
activity at 0.01 µM [1]: 107% | activity at 0.01 µM [2]: 94.5% | activity at 0.01 µM [3]: 97.8% | activity at 0.01 µM [4]: 98.4% | activity at 0.01 µM [5]: 115% | activity at 0.1 µM [1]: 103% | activity at 0.1 µM [2]: 96.5% | activity at 0.1 µM [3]: 99.1% | activity at 0.1 µM [4]: 96.6% | activity at 0.1 µM [5]: 104% | activity at 1 µM [1]: 110% | activity at 1 µM [2]: 99.2% | activity at 1 µM [3]: 91.5% | activity at 1 µM [4]: 99.2% | activity at 1 µM [5]: 108% | activity at 10 µM [1]: 105% | activity at 10 µM [2]: 100% | activity at 10 µM [3]: 58.9% | activity at 10 µM [4]: 114% | activity at 10 µM [5]: 102% | activity at 100 µM [1]: 0% | activity at 100 µM [2]: 0% | activity at 100 µM [3]: 0% | activity at 100 µM [4]: 0% | activity at 100 µM [5]: 0% | activity at 0.01 µM [6]: 125% | activity at 0.01 µM [7]: 96.2% | activity at 0.01 µM [8]: 105% | activity at 0.01 µM [9]: 93.1% | activity at 0.01 µM [10]: 102% | activity at 0.1 µM [6]: 79.9% | activity at 0.1 µM [7]: 128% | activity at 0.1 µM [8]: 95.5% | activity at 0.1 µM [9]: 89.2% | activity at 0.1 µM [10]: 94% | activity at 1 µM [6]: 112% | activity at 1 µM [7]: 79.4% | activity at 1 µM [8]: 86.9% | activity at 1 µM [9]: 101% | activity at 1 µM [10]: 82.1% | activity at 10 µM [6]: 80.2% | activity at 10 µM [7]: 113% | activity at 10 µM [8]: 86.9% | activity at 10 µM [9]: 104% | activity at 10 µM [10]: 96.7% | activity at 100 µM [6]: 0% | activity at 100 µM [7]: 0% | activity at 100 µM [8]: 0% | activity at 100 µM [9]: 0% | activity at 100 µM [10]: 0%

Oc1cc(Cl)c(-c2cc(Cl)ccc2Cl)cc1Cl [4-OH-PCB 52]
effect on Ca2+ flux (iPSC-CM, 100 μM, because of loss of cell viability): complete block of Ca^2+ flux
